Source: US20240366608A1, “PHARMACEUTICAL COMBINATIONS OF SOS1 INHIBITORS FOR TREATING AND/OR PREVENTING CANCER” (Lupin Limited, priority 2021, published 2024)

Assays:
[1] = system: MIA PaCa-2 or SW1990 pancreatic cancer cells; experiment: Colony formation assay, SOS1 inhibitor combined with targeted agents; format: cell-based, human; settings: 7 days of drug treatment, crystal violet absorbance at 590 nm; combined with one or more of the agents listed
Method: Compound 1, 2, 3, 3a, 3b, 4, 4a, 4b, 5, 6, 6a, 6b and 7 were tested for inhibition of colony formation potential in combination with one or more of the following agents in MIA PaCa-2 or SW1990 pancreatic cancer cells: • EGFR inhibitor: Afatinib, KRAS-G12C inhibitor: AMG 510, KRAS-G12C inhibitor: MRTX849, KRAS-G12D inhibitor: MRTX1133, ERK1/2 inhibitor: LY3214996 and BVD-523, BRAF inhibitor: Encorafenib, pan-RAF inhibitor: LXH254, PRMT5 inhibitor: compound 24 of WO 2019116302, Type I PRMT inhibitor: GSK3368715, PI3K inhibitor: BYL719, FGFR inhibitor: Nintedanib, CDK4/6 inhibitor: Abemaciclib, and other chemotherapeutic agent: Gemcitabine.
Colony formation assay: MIA PaCa-2 cells or SW1990 cells were seeded at 500 cells per well or 1500 cells/well, respectively in 48 well tissue culture plate and cells were allowed to settle overnight (16 to 20 h). On the following day, cells were treated with various concentrations of targeted agents to generate IC50 with or without increasing concentrations of SOS1 inhibitor (as depicted in the figures), and the assay plates were incubated under normal cell culture conditions. After 7 days of drug treatment, media was removed from each well and plates were washed with PBS. Cell colonies were stained with crystal violet solution for 2-5 min. Plate was then washed carefully under tap water and air dried. For quantitation, 200 μL destaining solution containing 10% Glacial acetic acid was added to each well and stained colonies were allowed to solubilize for 20-30 min on plate shaker. After solubilization, absorbance of the extracted stain was recorded in BioTek Synergy Neo U plate reader at 590 nm. Absorbance values were directly proportional to colony growth.

[2] = system: MIA PaCa-2 human pancreatic cancer xenograft; experiment: In vivo efficacy, Compound 1 or 4b combined with AMG 510, xenograft; design: species or system nude mice; settings: single agent; for tumor growth inhibition: 30 mg/kg b.i.d.
[3] = system: MIA PaCa-2 human pancreatic cancer xenograft; experiment: In vivo efficacy, Compound 4b combined with Afatinib or Compound 24 of WO 2019116302, xenograft; design: species or system nude mice; settings: single agent: Compound 4b 15 mg/kg b.i.d.; Afatinib 12.5 mg/kg q.d.; Compound 24 of WO 2019116302 1.0 mg/kg b.i.d.
[4] = system: MIA PaCa-2 xenograft; experiment: In vivo efficacy, Compound 5 combined with Compound 24 of WO 2019116302, xenograft; design: species or system nude mice; settings: single agent: Compound 5 50 mg/kg b.i.d.; Compound 24 of WO 2019116302 dose not given
Method: Compound 5 was tested in combination with Compound 24 of WO 2019116302 in vivo in MIA PaCa-2 xenograft model in nude mice.
20×10^6 MIA PaCa-2 cells were injected subcutaneously in the presence of PBS and Matrigel in 1:1 ratio in nude mice.

[5] = system: MIA PaCa-2 human pancreatic cancer xenograft; experiment: In vivo efficacy, Compound 7 combined with LXH254, xenograft; design: species or system nude mice; settings: single agent: Compound 7 5 mg/kg q.d.; LXH254 50 mg/kg b.i.d.
[6] = system: MIA PaCa-2 human pancreatic cancer xenograft; experiment: In vivo efficacy, Compound 7 combined with AMG 510, xenograft; design: species or system nude mice; settings: single agent
Excerpt: MIA PaCa-2 tumor fragments were implanted subcutaneously in the right flank region of nude mice. Tumor-bearing mice were randomized once the tumors reached an average volume of ˜155-164 mm^3 (tumor volume range 66-298 mm^3).

[7] = system: MIA PaCa-2 human pancreatic cancer xenograft; experiment: In vivo efficacy, Compound 7 combined with Afatinib, Compound 24 of WO 2019116302 or Ulixertinib, xenograft; design: species or system nude mice; settings: single agent, Compound 7 15 mg/kg b.i.d.

## COC1(C)C(=O)N(C)c2cc3c(N[C@H](C)c4cccc(C(F)(F)C(C)(C)O)c4F)nc(C)nc3cc21 (single isomer, unassigned) [Compound 4b]
[1]
  potentiation of activity of combination agents leading to inhibition of colony forming activity: significant potentiation
[2]
  tumor growth inhibition: 65.71±7.41%
[3]
  tumor growth inhibition: 47%

## CO[C@]1(C)C(=O)N(C)c2cc3c(N[C@H](C)c4cccc(C(F)(F)C(C)(C)O)c4F)nc(C)nc3cc21 (single isomer, unassigned) [Compound 4a]
[1]
  potentiation of activity of combination agents leading to inhibition of colony forming activity: significant potentiation

## Nc1nc2cc(CCC3=C[C@@H](n4ccc5c(N)ncnc54)[C@H](O)[C@@H]3O)cc(F)c2cc1Cl [Compound 24 of WO 2019116302, (1S,2R,5R)-3-(2-(2-amino-3-chloro-5-fluoroquinolin-7-yl)ethyl)-5-(4-amino-7H-pyrrolo[2,3-d]pyrimidin-7-yl)cyclopent-3-ene-1,2-diol, reference compound]
[3]
  tumor growth inhibition: 52%
[4]
  tumor growth inhibition: 73%

## Cc1ccc(NC(=O)c2ccnc(C(F)(F)F)c2)cc1-c1cc(OCCO)nc(N2CCOCC2)c1 [LXH254, N-(3-(2-(2-hydroxyethoxy)-6-morpholinopyridin-4-yl)-4-methylphenyl)-2-(trifluoromethyl)isonicotinamide, reference compound]
[5]
  inhibition in tumor growth: 34.96%

## CN(C)C/C=C/C(=O)Nc1cc2c(Nc3ccc(F)c(Cl)c3)ncnc2cc1O[C@H]1CCOC1 [Afatinib, (S,E)-N-(4-((3-chloro-4-fluorophenyl)amino)-7-((tetrahydrofuran-3-yl)oxy)quinazolin-6-yl)-4-(dimethylamino)but-2-enamide]
[3]
  tumor growth inhibition: 38%

## Cc1nc(N[C@H](C)c2cc(N)cc(C(F)(F)F)c2)c2cc(-c3ccc(=O)n(C)c3)c3c(c2n1)CCC3 [Compound 5, (R)-5-(4-((1-(3-amino-5-(trifluoromethyl)phenyl)ethyl)amino)-2-methyl-8,9-dihydro-7H-cyclopenta[h]quinazolin-6-yl)-1-methylpyridin-2(1H)-one]
[1]
  potentiation of activity of combination agents leading to inhibition of colony forming activity: significant potentiation
[4]
  tumor growth inhibition: 59%

## CO[C@]1(C)C(=O)N(C)c2cc3nc(C)nc(N[C@H](C)c4cccc(C(F)(F)C(C)(C)O)c4F)c3cc21 (racemic) [Compound 6a, (S/R)-4-(((R)-1-(3-(1,1-difluoro-2-hydroxy-2-methylpropyl)-2-fluorophenyl)ethyl)amino)-6-methoxy-2,6,8-trimethyl-6,8-dihydro-7H-pyrrolo[3,2-g]quinazolin-7-one]
[1]
  potentiation of activity of combination agents leading to inhibition of colony forming activity: significant potentiation

## C=CC(=O)N1CCN(c2nc(=O)n(-c3c(C)ccnc3C(C)C)c3nc(-c4c(O)cccc4F)c(F)cc23)[C@@H](C)C1 [AMG 510, 4-((S)-4-acryloyl-2-methylpiperazin-1-yl)-6-fluoro-7-(2-fluoro-6-hydroxyphenyl)-1-(2-isopropyl-4-methylpyridin-3-yl)pyrido[2,3-d]pyrimidin-2(1H)-one, reference compound]
[2]; AMG 510 10 mg/kg q.d.
  tumor regression: 39.43±15.22%
[6]; AMG 510 3 mg/kg q.d.
  inhibition in tumor growth: 77.69%

## COC1(C)C(=O)N(C)c2cc3nc(C)nc(N[C@H](C)c4cccc(C(F)(F)C(C)(C)O)c4F)c3cc21 (mixture of isomers) [Compound 6, (R&S)-4-(((R)-1-(3-(1,1-difluoro-2-hydroxy-2-methylpropyl)-2-fluorophenyl)ethyl)amino)-6-methoxy-2,6,8-trimethyl-6,8-dihydro-7H-pyrrolo[3,2-g]quinazolin-7-one]
[1]
  potentiation of activity of combination agents leading to inhibition of colony forming activity: significant potentiation

## COC1(C)C(=O)N(C)c2cc3nc(C)nc(N[C@H](C)c4cccc(C(F)(F)C(C)(C)O)c4F)c3cc21 (single isomer, unassigned) [Compound 6b]
[1]
  potentiation of activity of combination agents leading to inhibition of colony forming activity: significant potentiation

## COC1(C)C(=O)N(C)c2cc3c(N[C@H](C)c4cccc(C(F)(F)C(C)(C)O)c4F)nc(C)nc3cc21 (mixture of isomers) [Compound 4, (R&S)-4-(((R)-1-(3-(1,1-difluoro-2-hydroxy-2-methylpropyl)-2-fluorophenyl)ethyl)amino)-8-methoxy-2,6,8-trimethyl-6,8-dihydro-7H-pyrrolo[2,3-g]quinazolin-7-one]
[1]
  potentiation of activity of combination agents leading to inhibition of colony forming activity: significant potentiation

## Cc1nc(N[C@H](C)c2cccc(C(F)(F)C(C)(O)CO)c2F)c2cc3c(cc2n1)C(C)(C)C(=O)N3C (stereo partly drawn) [Compound 3, 4-(((R)-1-(3-((R&S)-1,1-Difluoro-2,3-dihydroxy-2-methylpropyl)-2-fluorophenyl)ethyl)amino)-2,6,8,8-tetramethyl-6,8-dihydro-7H-pyrrolo[2,3-g]quinazolin-7-one]
[1]
  potentiation of activity of combination agents leading to inhibition of colony forming activity: significant potentiation

## Cc1nc(N[C@H](C)c2cccc(C(F)(F)C(C)(C)O)c2F)c2cc3c(cc2n1)C(C)(C)C(=O)N3C [Compound 1, (R)-4-((1-(3-(1,1-Difluoro-2-hydroxy-2-methylpropyl)-2-fluorophenyl)ethyl)amino)-2,6,8,8-tetramethyl-6,8-dihydro-7H-pyrrolo[2,3-g]quinazolin-7-one]
[1]
  potentiation of activity of combination agents leading to inhibition of colony forming activity: significant potentiation
[2]
  tumor growth inhibition: 63.82±8.32%

## Cc1nc(N[C@H](C)c2cccc(C(F)(F)C(C)(O)CO)c2F)c2cc3c(cc2n1)C(C)(C)C(=O)N3C (single isomer, unassigned) [Compound 3a]
[1]
  potentiation of activity of combination agents leading to inhibition of colony forming activity: significant potentiation

## Cc1nc(N[C@H](C)c2cccc(C(F)(F)[C@@](C)(O)CO)c2F)c2cc3c(cc2n1)C(C)(C)C(=O)N3C (single isomer, unassigned) [Compound 3b]
[1]
  potentiation of activity of combination agents leading to inhibition of colony forming activity: significant potentiation

## CO[C@]1(C)C(=O)N(C)c2cc3c(N[C@H](C)c4cc(N)cc(C(F)(F)F)c4)nc(C)nc3cc21 [Compound 7, (S)-4-(((R)-1-(3-amino-5-(trifluoromethyl)phenyl)ethyl)amino)-8-methoxy-2,6,8-trimethyl-6,8-dihydro-7H-pyrrolo[2,3-g]quinazolin-7-one]
[1]
  potentiation of activity of combination agents leading to inhibition of colony forming activity: significant potentiation
[7]
  inhibition in tumor growth: 32.86%
[5]
  inhibition in tumor growth: 39.82%
[6]; Compound 7 5 mg/kg q.d.
  inhibition in tumor growth: 30.40%
[6]; Compound 7 10 mg/kg q.d.
  inhibition in tumor growth: 43.42%
[6]; Compound 7 20 mg/kg q.d.
  inhibition in tumor growth: 52.71%

## Cc1nc(NC(C)c2cccc(C(F)(F)C(C)(C)O)c2)c2cc3c(cc2n1)C(C)(C)C(=O)N3C (single isomer, unassigned) [Compound 2, (R/S)-4-((1-(3-(1,1-difluoro-2-hydroxy-2-methylpropyl)phenyl)ethyl)amino)-2,6,8,8-tetramethyl-6,8-dihydro-7H-pyrrolo[2,3-g]quinazolin-7-one]
[1]
  potentiation of activity of combination agents leading to inhibition of colony forming activity: significant potentiation
